Measured values published in publication PMC8040286 (iScience, 2021).
Read-outs that look alike come from different tables or passages of the source.

Experiments:
[1] = system: T. cruzi parasite release from trypomastigote-infected CHO cells; assay: microbe, parasite or virus in culture; format: cell-based; conditions: Trypanosoma cruzi; for IC50: read-out: IC50 inhibition of parasite release, serum-free conditions (high ROS), serum-free host cell culture as used in the screening
[2] = system: T. cruzi epimastigotes (Y strain); assay: microbe, parasite or virus in culture; format: cell-based, Trypanosoma cruzi; conditions: for Selectivity Index (CC50 CHO/IC50 Epi): CC50 CHO / IC50 epimastigotes; for IC50: Trypanosoma cruzi, 72 h, read-out: IC50 epimastigotes
[3] = system: GFP-expressing T. cruzi (Y) trypomastigotes released from infected CHO cells; assay: microbe, parasite or virus in culture; format: cell-based, Trypanosoma cruzi; conditions: for inhibition at 5 µM: read-out: Percentage inhibition of parasite release at 5 μM (low ROS)
[4] = Cytotoxicity/antiproliferative MTT assay in CHO host cells; format: cell-based, hamster; conditions: Chinese hamster, CHO-K1 cells
[5] = target: casein kinase 1; conditions: read-out: IC50 casein kinase 1; ref Justiniano et al., 2014; cited from earlier work
[6] = rodents; ref Li et al., 2020; cited from earlier work
[7] = system: CHO-K1 cells; assay: Cytotoxicity/antiproliferative MTT assay in CHO host cells; format: cell-based, hamster; conditions: read-out: CC50 CHO cells; 72-hr incubation; anthraquinones (Table 5)
[8] = read-out: IC50 inhibition of parasite release, 0.5% hiFBS (low ROS), 0.5% hiFBS, low ROS, GFP-expressing trypomastigotes, 6 dpi
[9] = CC50 CHO cells, 72-hr incubation, anthraquinones (Table 5)
[10] = Cytotoxicity CC50 CHO cells, 72 hr (Table 3)
[11] = read-out: Percentage inhibition of parasite release (serum-free) at 5 μM, 5 μM, serum-free, 6 dpi, CHO host cells
[12] = Cytotoxicity CC50 CHO cells without FBS, 72 hr, without FBS

Row | Structure (SMILES) | IC50 [2] [µM] | inhibition at 5 µM ([3]; Trypanosoma cruzi, CHO) [%] | CC50 at 72 h [4, 9] [µM] | other results
1 | O=C(Cn1ccnc1[N+](=O)[O-])NCc1ccccc1 [BZN, benznidazole, reference compound] | 13.8 ± 2.9 | 84.9 ± 4.8 | > 100 | IC50 [1]: 5 to 9 µM; Selectivity Index (CC50 CHO/IC50 Epi) [2]: >7; IC50 [3, 8]: 1.4 µM; CC50 at 72 h [4, 10]: > 100 µM
2 | C=C1C(=O)O[C@@H]2/C=C(\C)CC/C=C(\C)CC[C@@H]12 [Costunolide, (6R, 7S)-costunolide] | 7.4 ± 5.9 | – | – | inhibition at 5 µM [1, 11]: 0%; CC50 at 72 h [4, 12]: 35.4 ± 13.8 µM; CC50 at 72 h [4, 10]: 10.9 ± 3.7 µM
3 | C=C1CC[C@H]2C(=C)CC[C@H]3C(=C)C(=O)O[C@@H]3[C@@H]12 [Dehydrocostus lactone] | 1.4 ± 0.4 | – | – | inhibition at 5 µM [1, 11]: 86.2 ± 4.1%; CC50 at 72 h [4, 12]: 12.2 ± 0.5 µM; CC50 at 72 h [4, 10]: 5.8 ± 1.9 µM
4 | C=C[C@@H](O)C#CC#C[C@@H](O)/C=C\CCCCCCC [Falcarindiol] | > 50 | – | – | inhibition at 5 µM ([1]; read-out: Percentage inhibition of parasite release (serum-free) at 5 μM): 0%; CC50 at 72 h [4]: > 100 µM
5 | CC(=O)c1c(C)cc2cccc(O)c2c1O [Nepodin] | 28.7 ± 13.3 | – | – | inhibition at 5 µM [1, 11]: ~30%; CC50 at 72 h [4, 10]: > 100 µM
6 | C=C1[C@@H]2[C@H]3OC(=O)C(=C)[C@@H]3CCC(=C)[C@@H]2C[C@@H]1O [Zaluzanin C] | 6.7 ± 0.7 | – | – | inhibition at 5 µM [1, 11]: 71 ± 7.5%; CC50 at 72 h [4, 12]: 19.2 ± 5.2 µM; CC50 at 72 h [4, 10]: 6.6 ± 1.7 µM
7 | O=C1c2ccccc2C(=O)c2ccccc21 [compound 1, Anthraquinone] | > 50 | 22.2 ± 9.6 | – | CC50 at 72 h [4]: > 100 µM
8 | Cc1cc(O)c2c(c1)C(=O)c1cc(O)cc(O)c1C2=O [compound 2, Emodin] | 14.1 ± 8.2 | 24.8 ± 12.9 | > 100 | IC50 [1]: 0.72 µM; inhibition at 5 µM [1, 11]: 61.5 ± 18.2%; Selectivity Index (CC50 CHO/IC50 Epi) [2]: >7; IC50 [5]: 130 µM; IC50 ([3]; Trypanosoma cruzi, CHO, read-out: IC50 inhibition of parasite release, 0.5% hiFBS (low ROS), 0.5% hiFBS, low ROS, GFP-expressing trypomastigotes, 6 dpi): 9.52 µM; IC50 [3, 8]: 9.5 µM; oral bioavailability [6]: 5–10%; CC50 at 72 h [4, 10]: > 100 µM
9 | O=C1c2ccccc2C(=O)c2c(O)c(O)cc(O)c21 [compound 3, Purpurin] | > 50 | 48.3 ± 18.1 | 59.5 ± 10.1 | selectivity index (parasite release) ([3]; basis not stated, discussion): 7
10 | O=C1c2ccccc2C(=O)c2c1ccc(O)c2O [compound 4, Alizarin] | > 50 | 0 | – | –
11 | O=C1c2ccccc2C(=O)c2c1cc(S(=O)(=O)O)c(O)c2O [compound 5, Alizarin Red S] | > 50 | 0 | – | –
12 | O=C1c2ccccc2C(=O)c2c(O)ccc(O)c21 [compound 6, Quinizarin] | > 50 | 68.5 ± 19.2 | 38 ± 16 | Selectivity Index (CC50 CHO/IC50 Epi) [2]: <1; CC50 [7]: 38.1 ± 16 µM
13 | O=C1c2cccc(O)c2C(=O)c2cccc(O)c21 [compound 7, Anthrarufin] | > 50 | 0 | – | –
14 | O=C1c2cccc(O)c2C(=O)c2c(O)cccc21 [compound 8, Dantron] | 5.3 ± 2.3 | 0 | – | –
15 | O=C1c2ccc(O)cc2C(=O)c2ccc(O)cc21 [compound 9, Anthraflavic acid] | > 50 | 0 | – | –
16 | Cc1cc(O)c2c(c1)C(=O)c1cccc(O)c1C2=O [compound 10, Chrysophanol] | 6.6 ± 3.5 | 22.6 ± 17.2 | 35.7 ± 7.4 | Selectivity Index (CC50 CHO/IC50 Epi) [2]: 5.4
17 | O=C1c2cccc(O)c2C(=O)c2c(O)cc(CO)cc21 [compound 11, Aloe-emodin] | 14.5 ± 5.6 | 44 ± 17.6 | 42 ± 15.5 | Selectivity Index (CC50 CHO/IC50 Epi) [2]: 2.9
18 | COc1cc(O)c2c(c1)C(=O)c1cc(C)cc(O)c1C2=O [compound 12, Physcion] | 6.4 ± 3.7 | 0 | – | –
19 | Cc1cc2c(cc1O)C(=O)c1ccccc1C2=O [compound 13, 2-Hydroxy-3-methylanthraquinone] | > 50 | 0 | – | –
20 | Cc1c(O)ccc2c1C(=O)c1ccccc1C2=O [compound 14, 2-Hydroxy-1-methylanthraquinone] | > 50 | 20.9 ± 9.7 | 88.9 ± 8.9 | –
21 | O=C(O)c1cc(O)c2c(c1)C(=O)c1cccc(O)c1C2=O [compound 15, Rhein] | > 50 | 0 | – | –
22 | CC(=O)Oc1cccc2c1C(=O)c1c(OC(C)=O)cc(C(=O)O)cc1C2=O [compound 16, Diacerein] | > 50 | 0 | – | –
23 | COc1cc(N)c2c(c1N)C(=O)c1ccccc1C2=O [compound 17, Disperse Red11] | 32.9 ± 13.9 | 46.8 ± 25.6 | > 100 | Selectivity Index (CC50 CHO/IC50 Epi) [2]: >3
24 | COc1c(O)cc2c(c1O)C(=O)c1c(cc(C)c(O)c1OC)C2=O [compound 18, Aurantio-obtusin] | > 50 | 0 | – | –
